Laboratory results taken from BindingDB's records for doi:10.1021/jm9811209 (Novartis Horsham Research Centre, 1999).

Experiment: The compound was evaluated for the inhibitory activity against human thrombin

Compound: CC1(C)CNc2c(cccc2S(=O)(=O)NC(CCCNC(=N)N)C(=O)N2CCC(CCO)CC2)C1 (stereo unspecified) [3,3-Dimethyl-1,2,3,4-tetrahydro-quinoline-8-sulfonic acid {4-guanidino-1-[4-(2-hydroxy-ethyl)-piperidine-1-carbonyl]-butyl}-amide]
- Ki: 32 nM
